Converted amounts (≈) assume the structure as drawn.
Legend:
Assay in all cases: Agar dilution test according to Lorian (antibacterial activity)
Format in all cases: cell-based
[1] = system: Staph. aureus (285)
Protocol: (§1) Die antibakterielle Wirksamkeit der erfindungsgemäßen Verbindungen wurde im Agar-Verdünnungstest nach Lorian (Antibiotics in Laboratory Medicine, Williams & Wilkins, Baltimore/London, 1980) bestimmt. Dabei wurden die Präparate in einer geometrischen Verdünnungsreihe mit dem Faktor 2 in Müller Hinton Agar verdünnt. Eine Petrischale enthielt nur Müller Hinton Agar und diente zur Kontrolle des Bakterienwachstums. Die Petrischalen wurden dann mit einem Denley-Multipoint-Inokulator, welcher 0,6 ul einer 1 : 100 verdünnten 18-Stunden-Kultur der Testbakterien übertrug, mit den entsprechenden Testbakterien beimpft. Nach 16 bis 18 Stunden Inkubation bei 37^. C wurden die Petrischalen makroskopisch auf Bakterienwachstum untersucht.
(§2) Die niedrigste Konzentration der erfindungsgemäßen Verbindungen, welche das Bakterienwachstum noch vollständig verhinderte, wurde als MIC (Minimum Inhibitory Concentration) angenommen.
(§3) In Tabelle 4 ist die Wirkung (Angabe des MIC in µg/ml) von verschiedenen erfindungsgemäßen Verbindungen gegen folgende Bakterien aufgeführt: • Staph. aureus (SG 511), Staph. aureus (285), Staph. aureus (503), Strept. pyogenes (308 A), Strept pyogenes (77 A), Strept. faecium (D).

[2] = system: Staph. aureus (503)
Protocol: as §1, §2, §3

[3] = system: Staph. aureus (SG 511)
Protocol: as §1, §2, §3

[4] = system: Strept. faecium (D)
Protocol: as §1, §2, §3

[5] = system: Strept. pyogenes (308 A)
Protocol: as §1, §2, §3

[6] = system: Strept. pyogenes (77 A)
Protocol: as §1, §2, §3

[7] = Müller Hinton Agar, 16 to 18 h at 37 C, lowest concentration fully preventing growth

SMILES | MIC [1, 7] | MIC [2, 7] | MIC [3, 7] | MIC [4, 7] | MIC [5, 7] | MIC [6, 7] | MIC ([1]; Staphylococcus aureus) [µg/mL] | MIC ([2]; Staphylococcus aureus) [µg/mL] | MIC ([3]; Staphylococcus aureus) [µg/mL] | MIC ([4]; Enterococcus faecium) [µg/mL] | MIC ([5]; Streptococcus pyogenes) [µg/mL] | MIC ([6]; Streptococcus pyogenes) [µg/mL]
COC1CC(CC2CCC(C)C(C(C)C(=O)O)O2)OC2(OC(C)(C3CCC(C)(C4OC(C5OC(O)(COS(C)(=O)=O)C(C)CC5C)CC4C)O3)CC2C)C1C (stereo not drawn) [Beispiel 2] | 0,049 µg/ml | 0,049 µg/ml | 0,098 µg/ml | 0,195 µg/ml | 0,004 µg/ml | 0,013 µg/ml | – | – | – | – | – | –
COC1CC(CC2CCC(C)C(C(C)C(=O)O)O2)OC2(OC(C)(C3CCC(C)(C4OC(C5OC(O)(COC(=O)COc6ccccc6)C(C)CC5C)CC4C)O3)CC2C)C1C (stereo not drawn) [Beispiel 3] | 0,391 µg/ml | 0,391 µg/ml | 0,391 µg/ml | 0,781 µg/ml | 0,049 µg/ml | 0,049 µg/ml | – | – | – | – | – | –
COC1CC(CC2CCC(C)C(C(C)C(=O)O)O2)OC2(OC(C)(C3CCC(C)(C4OC(C5OC(O)(COC(=O)CCOc6ccccc6)C(C)CC5C)CC4C)O3)CC2C)C1C (stereo not drawn) [Beispiel 4] | 1,56 µg/ml | 0,78 µg/ml | 0,78 µg/ml | 1,56 µg/ml | 0,098 µg/ml | 0,098 µg/ml | – | – | – | – | – | –
COC1CC(CC2CCC(C)C(C(C)C(=O)O)O2)OC2(OC(C)(C3CCC(C)(C4OC(C5OC(O)(COC(C)=O)C(C)CC5C)CC4C)O3)CC2C)C1C (stereo not drawn) [Beispiel 5] | 0,391 µg/ml | 0,391 µg/ml | 0,391 µg/ml | 0,781 µg/ml | 0,098 µg/ml | 0,098 µg/ml | – | – | – | – | – | –
COC1CC(CC2CCC(C)C(C(C)C(=O)O)O2)OC2(OC(C)(C3CCC(C)(C4OC(C5OC(O)(COC(=O)c6ccccc6)C(C)CC5C)CC4C)O3)CC2C)C1C (stereo not drawn) [Beispiel 6] | 0,391 µg/ml | 0,098 µg/ml | 0,098 µg/ml | 0,391 µg/ml | 0,013 µg/ml | 0,013 µg/ml | – | – | – | – | – | –
COC1CC(CC2CCC(C)C(C(C)C(=O)O)O2)OC2(OC(C)(C3CCC(C)(C4OC(C5OC(O)(COC(=O)Cc6ccccc6)C(C)CC5C)CC4C)O3)CC2C)C1C (stereo not drawn) [Beispiel 7] | 0,391 µg/ml | 0,195 µg/ml | 0,195 µg/ml | 0,391 µg/ml | 0,004 µg/ml | 0,004 µg/ml | – | – | – | – | – | –
COC1CC(CC2CCC(C)C(C(C)C(=O)O)O2)OC2(OC(C)(C3CCC(C)(C4OC(C5OC(O)(COC(=O)c6ccco6)C(C)CC5C)CC4C)O3)CC2C)C1C (stereo not drawn) [Beispiel 8] | 0,391 µg/ml | 0,195 µg/ml | 0,195 µg/ml | 0,391 µg/ml | 0,013 µg/ml | 0,013 µg/ml | – | – | – | – | – | –
COC1CC(CC2CCC(C)C(C(C)C(=O)O)O2)OC2(OC(C)(C3CCC(C)(C4OC(C5OC(O)(COC(=O)c6cccs6)C(C)CC5C)CC4C)O3)CC2C)C1C (stereo not drawn) [Beispiel 9] | 0,195 µg/ml | 0,049 µg/ml | 0,049 µg/ml | 0,195 µg/ml | 0,007 µg/ml | 0,007 µg/ml | – | – | – | – | – | –
CCCCCCCCCCCC(=O)OCC1(O)OC(C2CC(C)C(C3(C)CCC(C4(C)CC(C)C5(OC(CC6CCC(C)C(C(C)C(=O)O)O6)CC(OC)C5C)O4)O3)O2)C(C)CC1C (stereo not drawn) [Beispiel 10] | 6,25 µg/ml | 3,13 µg/ml | 6,25 µg/ml | 6,25 µg/ml | 0,781 µg/ml | 0,781 µg/ml | – | – | – | – | – | –
COC1CC(CC2CCC(C)C(C(C)C(=O)O)O2)OC2(OC(C)(C3CCC(C)(C4OC(C5OC(O)(COC(=O)CCC(=O)O)C(C)CC5C)CC4C)O3)CC2C)C1C (stereo not drawn) [Beispiel 11] | 0,195 µg/ml | 0,098 µg/ml | 0,391 µg/ml | 0,391 µg/ml | 0,025 µg/ml | 0,025 µg/ml | – | – | – | – | – | –
COC1CC(CC2CCC(C)C(C(C)C(=O)O)O2)OC2(OC(C)(C3CCC(C)(C4OC(C5OC(O)(COC(=O)Nc6ccccc6)C(C)CC5C)CC4C)O3)CC2C)C1C (stereo not drawn) [Beispiel 12] | 3,13 µg/ml | 0,78 µg/ml | 0,781 µg/ml | 1,56 µg/ml | 0,098 µg/ml | 0,098 µg/ml | – | – | – | – | – | –
COC1CC(CC2CCC(C)C(C(C)C(=O)O)O2)OC2(OC(C)(C3CCC(C)(C4OC(C5OC(O)(COC(=O)NCc6ccccc6)C(C)CC5C)CC4C)O3)CC2C)C1C (stereo not drawn) [Beispiel 13] | 6,25 µg/ml | 3,13 µg/ml | 3,13 µg/ml | 12,5 µg/ml | 0,78 µg/ml | 0,39 µg/ml | – | – | – | – | – | –
COC1CC(CC2CCC(C)C(C(C)C(=O)O)O2)OC2(OC(C)(C3CCC(C)(C4OC(C5OC(O)(COC(=O)Nc6ccc(Cl)cc6)C(C)CC5C)CC4C)O3)CC2C)C1C (stereo not drawn) [Beispiel 14] | 100,0 µg/ml | 50,0 µg/ml | 100,0 µg/ml | 100,0 µg/ml | 25,0 µg/ml | 12,5 µg/ml | – | – | – | – | – | –
COC1CC(CC2CCC(C)C(C(C)C(=O)O)O2)OC2(OC(C)(C3CCC(C)(C4OC(C5OC(O)(COS(=O)(=O)O)C(C)CC5C)CC4C)O3)CC2C)C1C (stereo not drawn) [Beispiel 15] | 1,56 µg/ml | 0,78 µg/ml | 1,56 µg/ml | 3,13 µg/ml | 1,56 µg/ml | 0,78 µg/ml | – | – | – | – | – | –
COC1CC(CC2CCC(C)C(C(C)C(=O)O)O2)OC2(OC(C)(C3CCC(C)(C4OC(C5OC(CO)(OC)C(C)CC5C)CC4C)O3)CC2C)C1C (stereo not drawn) [Beispiel 16] | 1,56 µg/ml | 1,56 µg/ml | 1,56 µg/ml | 3,13 µg/ml | 0,39 µg/ml | 0,39 µg/ml | – | – | – | – | – | –
CCOC1(CO)OC(C2CC(C)C(C3(C)CCC(C4(C)CC(C)C5(OC(CC6CCC(C)C(C(C)C(=O)O)O6)CC(OC)C5C)O4)O3)O2)C(C)CC1C (stereo not drawn) [Beispiel 17] | 1,56 µg/ml | 0,78 µg/ml | 1,56 µg/ml | 1,56 µg/ml | 0,098 µg/ml | 0,098 µg/ml | – | – | – | – | – | –
COC1CC(CC2CCC(C)C(C(C)C(=O)O)O2)OC2(OC(C)(C3CCC(C)(C4OC(C5OC(COS(C)(=O)=O)(OC)C(C)CC5C)CC4C)O3)CC2C)C1C (stereo not drawn) [Beispiel 20] | – | – | – | – | – | – | 25 (≈ 30.6 µM) | 12.5 (≈ 15.3 µM) | 25 (≈ 30.6 µM) | 25 (≈ 30.6 µM) | 6.25 (≈ 7.65 µM) | 6.25 (≈ 7.65 µM)
COC1CC(CC2CCC(C)C(C(C)C(=O)O)O2)OC2(OC(C)(C3CCC(C)(C4OC(C5OC(O)(COC(=O)C=CC(=O)O)C(C)CC5C)CC4C)O3)CC2C)C1C (stereo not drawn) [Beispiel 23] | – | – | – | – | – | – | – | – | – | 0.39 (≈ 0.474 µM) | – | –
COC1CC(CC2CCC(C)C(C(C)C(=O)O)O2)OC2(OC(C)(C3CCC(C)(C4OC(C5OC(O)(COC(=O)C(C)C)C(C)CC5C)CC4C)O3)CC2C)C1C (stereo not drawn) [Beispiel 27] | – | – | – | – | – | – | 0.39 (≈ 0.491 µM) | 0.19 (≈ 0.239 µM) | 0.39 (≈ 0.491 µM) | > 100 | – | –
COC1CC(CC2CCC(C)C(C(C)C(=O)O)O2)OC2(OC(C)(C3CCC(C)(C4OC(C5OC(O)(COC(=O)c6c(Br)c(Br)c(Br)c(Br)c6C(=O)O)C(C)CC5C)CC4C)O3)CC2C)C1C (stereo not drawn) [Beispiel 29] | – | – | – | – | – | – | 3.13 (≈ 2.63 µM) | 1.56 (≈ 1.31 µM) | 1.56 (≈ 1.31 µM) | 3.13 (≈ 2.63 µM) | – | –
COC1CC(CC2CCC(C)C(C(C)C(=O)O)O2)OC2(OC(C)(C3CCC(C)(C4OC(C5OC(O)(COC(=O)c6ccccc6C(=O)O)C(C)CC5C)CC4C)O3)CC2C)C1C (stereo not drawn) [Beispiel 31] | – | – | – | – | – | – | 0.78 (≈ 0.893 µM) | 0.78 (≈ 0.893 µM) | 0.78 (≈ 0.893 µM) | – | – | –

From patent publication EP0324390A2, “Nigericin derivatives, method for their preparation, compositions containing them and use of these compositions” (priority 1988, dated 1989)
